From patent US4839374A, “4-((Bicyclic heterocyclyl)-methyl and -hetero)-piperidines” (Janssen Pharmaceutica, N.V., priority 1987, dated 1989)

System: compound 48/80-induced lethality
Assay: Protection of rats from compound 48/80-induced lethality
Assay type: in vivo, rats of an inbred Wistar strain
Settings: protection of 50% of animals, survival after 4 hours; for ED50: Rattus norvegicus, 4 h, read-out: Compound 48/80 lethality test in rats ED50, s.c. or p.o. 1 h before compound 48/80 0.5 mg/kg i.v.
Procedure: Protection of rats from compound 48/80-induced lethality
The protection from compound 48/80-induced lethal circulatory collapse appears to be a simple way of evaluating quantitatively the antihistaminic activity of test compounds. Male rats of an inbred Wistar strain, weighing 240-260 g were used in the experiment. After overnight starvation the rats were transferred to conditioned laboratories (temp.=21±1° C., relative humidity=65+5%). The rats were treated subcutaneously or orally with a test compound or with the solvent (NaCl solution, 0.9%). […] Survival after 4 hours is therefore considered to be a safe criterion of a protective effect of drug administration. The ED50 -values of the compounds of formula (I) are listed in the first column of tables 1 to 4. Said ED50 -values are the values in mg/kg body weight at which the tested compounds protect 50% of the tested animals against compound 48/80-induced lethality. The compounds of formula (I) and the pharmaceutically acceptable acid addition salts thereof are also potent serotonin-antagonists. The potency of the subject compounds as serotonin-antagonists is clearly evidenced by the results obtained in the following tests wherein the antagonistic activity of the subject compounds on the effect of serotonin is examined.

| Compound | ED50 [mg/kg] | Compound 48/80 lethality test in rats ED50 (s.c. or p.o. 1 h before compound 48/80 0.5 mg/kg i.v., 0.5 mg/kg, 240 min) [mg/kg body weight] |
| --- | --- | --- |
| OCCN1CCC(Cc2nc3cccnc3n2Cc2ccc(F)cc2)CC1 [Compound 115, 4-[[3-[(4-fluorophenyl)methyl]-3H-imidazo[4,5-b]pyridin-2-yl]methyl]-1-piperidineethanol] | 0.16 | – |
| N#CCN1CCC(Cc2nc3cccnc3n2Cc2ccc(F)cc2)CC1 [Compound 290] | 0.08 | – |
| OC(COc1ccc2ccccc2c1)CN1CCC(Cc2nc3ccccc3n2Cc2ccc(F)cc2)CC1 (stereo not drawn) [Compound 116, 4-[[1-[(4-fluorophenyl)methyl]-1H-benzimidazol-2-yl]methyl]-α-[(2-naphthalenyloxy)methyl]-1-piperidineethanol] | 0.16 | – |
| O=C(NCCN1CCC(Cc2nc3ccccc3n2Cc2ccc(F)cc2)CC1)c1ccoc1 [Compound 434, N-[2-[4-[[1-[(4-fluorophenyl)methyl]-1H-benzimidazol-2-yl]methyl]-1-piperidinyl]ethyl]-3-furancarboxamide] | 0.0025 | – |
| Fc1ccc(Cn2c(CC3CCN(CCNc4cnccn4)CC3)nc3ccccc32)cc1 [Compound 368] | 0.01 | – |
| COc1ccc(CCN2CCC(Cc3nc4ccccc4n3Cc3ccc(C)o3)CC2)cc1 [Compound 266] | 0.04 | – |
| N#CCN1CCC(Cc2nc3ccccc3n2Cc2ccccc2)CC1 [Compound 297] | 0.08 | – |
| CC(C)NC(=O)CN1CCC(Cc2nc3ccccc3n2Cc2ccc(F)cc2)CC1 [Compound 134] | 0.04 | – |
| Cc1ccc(Cn2c(CC3CCN(CCNc4nccs4)CC3)nc3ccccc32)cc1 [Compound 364] | 0.04 | – |
| COc1ccc(CCN2CCC(Cc3nc4ccccc4n3Cc3cscn3)CC2)cc1 [Compound 245, 2-[[1-[2-(4-methoxyphenyl)ethyl]-4-piperidinyl]methyl]-1-(4-thiazolylmethyl)-1H-benzimidazole] | 0.02 | – |
| Cn1c(=O)n(CCN2CCC(Cc3nc4ccccc4n3Cc3ccco3)CC2)c(=O)c2ccccc21 [Compound 221] | 0.04 | – |
| Fc1ccc(Cn2c(CC3CCN(CCNc4cccnn4)CC3)nc3ccccc32)cc1 [Compound 500, N-[2-[4-[[1-[(4-fluorophenyl)methyl]-1H-benzimidazol-2-yl]methyl]-1-piperidinyl]ethyl]-3-pyridazinamine] | 0.01 | – |
| Cn1ccnc1NCCN1CCC(Cc2nc3ccccc3n2Cc2ccc(F)cc2)CC1 [Compound 452, 4-[[1-[(4-fluorophenyl)methyl]-1H-benzimidazol-2-yl]methyl]-N-(1-methyl-1H-imidazol-2-yl)-1-piperidineethanamine] | 0.16 | – |
| O=c1[nH]c2ccccc2n1CCCN1CCC(Cc2nc3cccnc3n2Cc2ccco2)CC1 [Compound 152] | 0.04 | – |
| OCCN1CCC(Sc2nc3ccccc3n2Cc2ccc(F)cc2)CC1 [Compound 104, 4-[[1-[(4-fluorophenyl)-methyl]-1H-benzimidazol-2-yl]thio]-1-piperidineethanol] | 0.08 | – |
| O=c1[nH]c2ccccc2n1CCCN1CCC(Oc2nc3ccccc3n2Cc2ccc(F)cc2)CC1 [Compound 140, 1-[3-[4-[[1-[(4-fluorophenyl)methyl]-1H-benzimidazol-2-yl]oxy]-1-piperidinyl]propyl]-1,3-dihydro-2H-benzimidazol-2-one] | 0.04 | – |
| Nc1ccccc1C(=O)NCCN1CCC(Oc2nc3ccccc3n2Cc2ccc(F)cc2)CC1 [Compound 480, 2-amino-N-[2-[4-[[1-[(4-fluorophenyl)methyl]-1H-benzimidazol-2-yl]oxy]-1-piperidinyl]ethyl]benzamide] | 0.02 | – |
| Fc1ccc(Cn2c(SC3CCN(CCOc4ncccn4)CC3)nc3ccccc32)cc1 [Compound 393, 1-[(4-fluorophenyl)methyl]-2-[[1-[2-(2-pyrimidinyloxy)ethyl]-4-piperidinyl]thio]-1H-benzimidazole] | 0.08 | – |
| Fc1ccc(Cn2c(CC3CCN(CCNCc4ccccn4)CC3)nc3ccccc32)cc1 [Compound 427, N-[2-[4-[[1-[(4-fluorophenyl)methyl]-1H-benzimidazol-2-yl]methyl]-1-piperidinyl]ethyl]-2-pyridinemethanamine] | 0.16 | – |
| Fc1ccc(Cn2c(OC3CCNCC3)nc3ccccc32)cc1 [Compound 66, 1-[(4-fluorophenyl)methyl]-2-(4-piperidinyloxy)-1H-benzimidazole] | 0.02 | – |
| O=c1cc[nH]c(=O)n1CCN1CCC(Cc2nc3ccccc3n2Cc2ccco2)CC1 [Compound 175] | 0.02 | – |
| O=c1[nH]c2ccccc2c(=O)n1CCCN1CCC(Cc2nc3cccnc3n2Cc2ccco2)CC1 [Compound 169] | 0.02 | – |

| Compound | ED50 [mg/kg] | Compound 48/80 lethality test in rats ED50 (s.c. or p.o. 1 h before compound 48/80 0.5 mg/kg i.v., 0.5 mg/kg, 240 min) [mg/kg body weight] |
| --- | --- | --- |
| CC(C)N1CCC(Cc2nc3cccnc3n2Cc2ccc(F)cc2)CC1 [Compound 89] | 0.04 | – |
| Fc1ccc(Cn2c(CC3CCN(C4CCCCC4)CC3)nc3cccnc32)cc1 [Compound 98] | 0.04 | – |
| O=c1oc2ccccc2cc1CCN1CCC(Cc2nc3cccnc3n2Cc2ccco2)CC1 [Compound 174] | 0.01 | – |
| O=c1oc2ccccc2cc1CCN1CCC(Cc2nc3ccccc3n2Cc2ccc(F)cc2)CC1 [Compound 161] | 0.04 | – |
| O=S(=O)(CCN1CCC(Cc2nc3ccccc3n2Cc2ccc(F)cc2)CC1)c1ccccc1 [Compound 130] | 0.16 | – |
| CC(C)N1CCC(Cc2nc3cnccc3n2Cc2ccc(F)cc2)CC1 [Compound 100] | 0.16 | – |
| c1ccc(Cn2c(CC3CCNCC3)nc3ccccc32)cc1 [Compound 40, 1-(phenylmethyl)-2-(4-piperidinylmethyl)-1H-benzimidazole] | 0.08 | – |
| Fc1ccc(Cn2c(OC3CCN(CCNc4nccs4)CC3)nc3ccccc32)cc1 [Compound 355] | 0.08 | – |
| Fc1ccc(Cn2c(CC3CCN(Cc4cn5cccnc5n4)CC3)nc3ccccc32)cc1 [Compound 183] | 0.01 | – |
| S=C=NCCN1CCC(Cc2nc3cccnc3n2Cc2cccs2)CC1 [Compound 402] | 0.04 | – |
| Fc1ccc(Cn2c(CC3CCNCC3)nc3cccnc32)cc1 [Compound 45, 3-[(4-fluorophenyl)methyl]-2-(4-piperidinylmethyl)-3H-imidazo[4,5-b]-pyridine] | 0.04 | – |
| c1coc(Cn2c(CC3CCN(CCNc4nc5cnccc5[nH]4)CC3)nc3cccnc32)c1 [Compound 417, N-[2-[4-[[3-(2-furanylmethyl)-3H-imidazo[4,5-b]pyridin-2-yl]methyl]-1-piperidinyl]ethyl]-1H-imidazo[4,5-c]pyridin-2-amine] | 0.04 | – |
| Fc1ccc(Cn2c(CC3CCN(CCNc4ccc(Cl)nn4)CC3)nc3ccccc32)cc1 [Compound 378, 6-chloro-N-[2-[4-[[1-[(4-fluorophenyl)methyl]-1H-benzimidazol-2-yl]methyl]-1-piperidinyl]ethyl]-3-pyridazinamine] | 0.04 | – |
| Fc1ccc(Cn2c(CC3CCN(Cc4ccccc4)CC3)nc3cccnc32)cc1 [Compound 8, 3-[(4-fluorophenyl)methyl]-2-[[1-(phenylmethyl)-4-piperidinyl]-methyl]-3H-imidazo[4,5-b]pyridine] | 0.04 | – |
| O=c1[nH]c2ccccc2n1CCCN1CCC(Sc2nc3ccccc3n2Cc2ccc(F)cc2)CC1 [Compound 255] | 0.16 | – |
| c1cnc(NCCN2CCC(Cc3nc4ccccc4n3Cc3cscn3)CC2)nc1 [Compound 338] | 0.02 | – |
| Cc1nc2n(c(=O)c1CCN1CCC(Cc3nc4ccccc4n3Cc3ccco3)CC1)CCCS2 [Compound 166] | 0.04 | – |
| C=CCN1CCC(Cc2nc3ccccc3n2Cc2ccc(F)cc2)CC1 [Compound 144, 1-[(4-fluorophenyl)methyl]-2-[[1-(2-propenyl)-4-piperidinyl]methyl]-1H-benzimidazole] | 0.04 | – |
| C=CCN1CCC(Cc2nc3cccnc3n2Cc2ccc(F)cc2)CC1 [Compound 142, 3-[(4-fluorophenyl)methyl]-2-[[1-(2-propenyl)-4-piperidinyl]methyl]-3H-imidazo-[4,5-b]pyridine] | 0.02 | – |
| OCCN1CCC(Oc2nc3ccccc3n2Cc2ccc(F)cc2)CC1 [Compound 105, 4-[[1-[(4-fluorophenyl)methyl]-1H-benzimidazol-2-yl]oxy]-1-piperidineethanol] | 0.01 | – |
| Cc1nc2n(c(=O)c1CCN1CCC(Cc3nc4ccccc4n3Cc3ccco3)CC1)CCS2 [Compound 167] | – | 0.01 |
| Fc1ccc(Cn2c(CC3CCNCC3)nc3ncccc32)cc1 [Compound 48, 1-[(4-fluorophenyl)methyl]-2-(4-piperidinylmethyl)-1H-imidazo[4,5-b]-pyridine] | 0.16 | – |
